This is an account of results in patent US20160326142A1, “PYRAZOLE CARBOXAMIDE COMPOUNDS, COMPOSITIONS AND METHODS OF USE” (Genentech, Inc., priority 2012, published 2016).

A word on the Ki: it is a dissociation constant, usually derived from enzyme kinetics or from competition with a known ligand.

This assay concerns the target T1, ITK (Homo sapiens, UniProt Q08881).
T1 construct: purchased Invitrogen PV3875
T1 sequence (Q08881 1-620): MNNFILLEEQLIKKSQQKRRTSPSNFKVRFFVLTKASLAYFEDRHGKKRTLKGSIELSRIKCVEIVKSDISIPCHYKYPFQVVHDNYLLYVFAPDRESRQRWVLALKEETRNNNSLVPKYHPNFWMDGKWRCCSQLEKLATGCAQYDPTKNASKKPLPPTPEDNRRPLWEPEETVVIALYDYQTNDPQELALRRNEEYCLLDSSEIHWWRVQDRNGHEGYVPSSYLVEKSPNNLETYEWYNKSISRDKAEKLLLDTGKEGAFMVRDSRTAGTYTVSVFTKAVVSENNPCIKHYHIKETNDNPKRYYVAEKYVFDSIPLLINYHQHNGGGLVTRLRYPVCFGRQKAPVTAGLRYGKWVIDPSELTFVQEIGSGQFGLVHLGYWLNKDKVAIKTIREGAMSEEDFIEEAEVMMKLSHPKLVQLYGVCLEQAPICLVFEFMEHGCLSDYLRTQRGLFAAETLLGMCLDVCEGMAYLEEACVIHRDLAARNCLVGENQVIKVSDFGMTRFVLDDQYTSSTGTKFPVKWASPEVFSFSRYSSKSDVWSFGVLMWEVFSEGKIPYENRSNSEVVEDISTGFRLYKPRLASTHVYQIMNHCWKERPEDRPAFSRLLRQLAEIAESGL
Nature of the assay: ITK enzyme assay (Caliper or LCMS peptide phosphorylation). Format: biochemical. The conditions noted are these: purified ITK (Invitrogen PV3875), 20 μM ATP, Ki by Morrison's quadratic equation. The protocol:
The ability of purified ITK (Invitrogen PV3875) to catalyze peptide phosphorylation is monitored using a Caliper LabChip 3000 microfluidic unit (Caliper assay) or by liquid chromatography-mass spectrometry (LCMS) using a Waters Acquity system (LCMS assay). […] Reactions are quenched by the addition of 2,2′,2″,2′″-(ethane-1,2-diyldinitrilo)tetraacetic acid (50 mM final). Non-phosphorylated substrate and phosphorylated product peptides are separated and quantified using a Caliper LabChip 3000 instrument. […] Reactions are quenched by the addition of trichloroacetic acid (5% v/v final). Non-phosphorylated substrate and phosphorylated product peptides are separated by ultra performance LC and detected by a coupled triple quadrupole MS device applying multiple reaction monitoring (MRM) for quantification. The area of the MRM-extracted mass signal is used to assess the inhibition by test compounds. Equilibrium dissociation constant (Ki) values for ITK inhibitors are calculated from plots of activity vs. inhibitor concentration using Morrison's quadratic equation that accounts for the potential of tight binding, and by also applying the conversion factor that accounts for competitive inhibition and the concentration of ATP used in the assay relative to its apparent Michaelis constant (Km,app).
Molecule `CC1(C)CCc2c(C(=O)Nc3cnn(C(CCN)c4ccccc4)c3)n[nH]c2C1` (single isomer, unassigned) [Example 42b, N-(1-(3-amino-1-phenylpropyl)-1H-pyrazol-4-yl)-6,6-dimethyl-4,5,6,7-tetrahydro-1H-indazole-3-carboxamide] showed a Ki of 0.9 nM. That is a sub-nanomolar value.
The molecule `CN1CCC(C(c2ccccc2)n2cc(NC(=O)c3n[nH]c4c3CCC(C)(C)C4)cn2)CC1` (single isomer, unassigned) [Example 43a, 6,6-dimethyl-N-(1-((1-methylpiperidin-4-yl)(phenyl)methyl)-1H-pyrazol-4-yl)-4,5,6,7-tetrahydro-1H-indazole-3-carboxamide] displayed a Ki of 0.2 nM.
For `CN1CCC(C(c2ccccc2)n2cc(NC(=O)c3n[nH]c4c3CCC(C)(C)C4)cn2)CC1` (single isomer, unassigned) [Example 43b, 6,6-dimethyl-N-(1-((1-methylpiperidin-4-yl)(phenyl)methyl)-1H-pyrazol-4-yl)-4,5,6,7-tetrahydro-1H-indazole-3-carboxamide] the value was 6.2 nM; for `CC1(C)CCc2c(C(=O)Nc3cnn(C(c4ccccc4)C4(F)CCNCC4)c3)n[nH]c2C1` (single isomer, unassigned) [Example 44a, N-(1-((4-fluoropiperidin-4-yl)(phenyl)methyl)-1H-pyrazol-4-yl)-6,6-dimethyl-4,5,6,7-tetrahydro-1H-indazole-3-carboxamide], 6 nM; for `CC1(C)CCc2c(C(=O)Nc3cnn(C(c4ccccc4)C4(F)CCNCC4)c3)n[nH]c2C1` (single isomer, unassigned) [Example 44b, N-(1-((4-fluoropiperidin-4-yl)(phenyl)methyl)-1H-pyrazol-4-yl)-6,6-dimethyl-4,5,6,7-tetrahydro-1H-indazole-3-carboxamide], 0.2 nM.
As to `CC1(C)CCc2c(C(=O)Nc3cnn(C(c4ccccc4)C4CN(S(C)(=O)=O)C4)c3)n[nH]c2C1` (single isomer, unassigned) [Example 45a, 6,6-dimethyl-N-(1-((1-(methylsulfonyl)azetidin-3-yl)(phenyl)methyl)-1H-pyrazol-4-yl)-4,5,6,7-tetrahydro-1H-indazole-3-carboxamide], the Ki was 370 nM.
For `CC1(C)CCc2c(C(=O)Nc3cnn(C(c4ccccc4)C4CN(S(C)(=O)=O)C4)c3)n[nH]c2C1` (single isomer, unassigned) [Example 45b, 6,6-dimethyl-N-(1-((1-(methylsulfonyl)azetidin-3-yl)(phenyl)methyl)-1H-pyrazol-4-yl)-4,5,6,7-tetrahydro-1H-indazole-3-carboxamide], the inhibition constant (Ki) came to 48 nM.
For the molecule `Cc1cccc(C(C2CNC2)n2cc(NC(=O)c3n[nH]c4c3CCC(C)(C)C4)cn2)c1` (single isomer, unassigned) [Example 47a, N-(1-(azetidin-3-yl(m-tolyl)methyl)-1H-pyrazol-4-yl)-6,6-dimethyl-4,5,6,7-tetrahydro-1H-indazole-3-carboxamide], the Ki was found to be 2 nM. Against the preceding molecule, the Ki is about 24-fold lower.
For `Cc1cccc(C(C2CNC2)n2cc(NC(=O)c3n[nH]c4c3CCC(C)(C)C4)cn2)c1` (single isomer, unassigned) [Example 47b, N-(1-(azetidin-3-yl(m-tolyl)methyl)-1H-pyrazol-4-yl)-6,6-dimethyl-4,5,6,7-tetrahydro-1H-indazole-3-carboxamide] the value was 9 nM; for `CC1(C)CCc2c(C(=O)Nc3cnn(C(c4ccccc4)C4(F)CNC4)c3)n[nH]c2C1` (single isomer, unassigned) [Example 49a, N-(1-((3-fluoroazetidin-3-yl)(phenyl)methyl)-1H-pyrazol-4-yl)-6,6-dimethyl-4,5,6,7-tetrahydro-1H-indazole-3-carboxamide], 10 nM.
In the case of `CC1(C)CCc2c(C(=O)Nc3cnn(C(c4ccccc4)C4(F)CNC4)c3)n[nH]c2C1` (single isomer, unassigned) [Example 49b, N-(1-((3-fluoroazetidin-3-yl)(phenyl)methyl)-1H-pyrazol-4-yl)-6,6-dimethyl-4,5,6,7-tetrahydro-1H-indazole-3-carboxamide] it was 2 nM; in that of `O=C(Nc1cnn(Cc2ccccc2)c1)c1n[nH]c2c1CCC1(CCCO1)C2` (single isomer, unassigned) [Example 50a, N-(1-benzyl-1H-pyrazol-4-yl)-1′,4,4′,5,5′,7′-hexahydro-3H-spiro[furan-2,6′-indazole]-3′-carboxamide], 260 nM.
For `O=C(Nc1cnn(Cc2ccccc2)c1)c1n[nH]c2c1CCC1(CCCO1)C2` (single isomer, unassigned) [Example 50b, N-(1-benzyl-1H-pyrazol-4-yl)-1′,4,4′,5,5′,7′-hexahydro-3H-spiro[furan-2,6′-indazole]-3′-carboxamide] the value was 620 nM; for `CC1(O)CCc2c(C(=O)Nc3cnn(Cc4ccccc4)c3)n[nH]c2C1` (single isomer, unassigned) [Example 51a, N-(1-benzyl-1H-pyrazol-4-yl)-6-hydroxy-6-methyl-4,5,6,7-tetrahydro-1H-indazole-3-carboxamide], 160 nM; for `CN(C)CCC(c1ccccc1)n1cc(NC(=O)c2n[nH]c3c2CC2CC2(C)C3)cn1` (single isomer, unassigned) [Example 52a, N-(1-(3-(dimethylamino)-1-phenylpropyl)-1H-pyrazol-4-yl)-5a-methyl-1,4,4a,5,5a,6-hexahydrocyclopropa[f]indazole-3-carboxamide], 0.2 nM.
`CN(C)CCC(c1ccccc1)n1cc(NC(=O)c2n[nH]c3c2CC2CC2(C)C3)cn1` (single isomer, unassigned) [Example 52b, N-(1-(3-(dimethylamino)-1-phenylpropyl)-1H-pyrazol-4-yl)-5a-methyl-1,4,4a,5,5a,6-hexahydrocyclopropa[f]indazole-3-carboxamide] yielded a Ki of 17 nM.
For `CN(C)CCC(c1ccccc1)n1cc(NC(=O)c2n[nH]c3c2CC2CC2(C)C3)cn1` (single isomer, unassigned) [Example 52c, N-(1-(3-(dimethylamino)-1-phenylpropyl)-1H-pyrazol-4-yl)-5a-methyl-1,4,4a,5,5a,6-hexahydrocyclopropa[f]indazole-3-carboxamide] the value was 2 nM; for `CN(C)CCC(c1ccccc1)n1cc(NC(=O)c2n[nH]c3c2CC2CC2(C)C3)cn1` (single isomer, unassigned) [Example 52d, N-(1-(3-(dimethylamino)-1-phenylpropyl)-1H-pyrazol-4-yl)-5a-methyl-1,4,4a,5,5a,6-hexahydrocyclopropa[f]indazole-3-carboxamide], 100 nM.
For `CC1(C)CCc2c(C(=O)Nc3cnn(C(CO)c4ccccc4)c3)n[nH]c2C1` (single isomer, unassigned) [Example 53a, N-(1-(2-hydroxy-1-phenylethyl)-1H-pyrazol-4-yl)-6,6-dimethyl-4,5,6,7-tetrahydro-1H-indazole-3-carboxamide] the value was 5 nM.
In turn, `CC1(C)CCc2c(C(=O)Nc3cnn(C(CO)c4ccccc4)c3)n[nH]c2C1` (single isomer, unassigned) [Example 53b, N-(1-(2-hydroxy-1-phenylethyl)-1H-pyrazol-4-yl)-6,6-dimethyl-4,5,6,7-tetrahydro-1H-indazole-3-carboxamide] had a Ki of 29 nM.
For `CCC(c1cccnc1)n1cc(NC(=O)c2n[nH]c3c2CCC(C)(C)C3)cn1` (single isomer, unassigned) [Example 54a, 6,6-dimethyl-N-(1-(1-(pyridin-3-yl)propyl)-1H-pyrazol-4-yl)-4,5,6,7-tetrahydro-1H-indazole-3-carboxamide], the Ki is 1 nM.
In the case of `CCC(c1cccnc1)n1cc(NC(=O)c2n[nH]c3c2CCC(C)(C)C3)cn1` (single isomer, unassigned) [Example 54b, 6,6-dimethyl-N-(1-(1-(pyridin-3-yl)propyl)-1H-pyrazol-4-yl)-4,5,6,7-tetrahydro-1H-indazole-3-carboxamide] it was 6 nM.
In the case of `CC1(C)CCc2c(C(=O)Nc3cnn(C(c4ccccc4)C(C)(C)O)c3)n[nH]c2C1` (single isomer, unassigned) [Example 55a, N-(1-(2-hydroxy-2-methyl-1-phenylpropyl)-1H-pyrazol-4-yl)-6,6-dimethyl-4,5,6,7-tetrahydro-1H-indazole-3-carboxamide] it was 5 nM.
